# From US20230099344A1, “COMPOUNDS AND METHODS FOR THE TARGETED DEGRADATION OF IRAK-4” (Arvinas Operations, Inc., priority 2021, published 2023)
# How the values were obtained:
# Type in all cases: cell-based
# IL8 = test: IL-1β stimulated IL8 inhibition assay in PBMC; conditions: human PBMCs, IL-1β stimulation, compound overnight, IL8 by MSD after 24 hrs; for IC50: read-out: IL1β stim IL8 inhibition IC50; for Emax: read-out: IL1β stim IL8 inhibition Ymax
# Procedure, shortened: (§1)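 Seed human PBMC, 2.0×10^6 cells/mL → compound overnight → stimulant (IL-1β, LPS or R848) at per-donor EC50 → 24 hrs → media to MSD for IL6/IL8.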
# IRAK-4 [1] = molecular target: T1, IRAK-4 (Homo sapiens, UniProt Q9NWZ3); test: IRAK-4 ELISA, PBMC degradation; set-up: endogenous in cells; host or cells: PBMC; conditions: treated overnight
# T1 sequence (Q9NWZ3 1-460): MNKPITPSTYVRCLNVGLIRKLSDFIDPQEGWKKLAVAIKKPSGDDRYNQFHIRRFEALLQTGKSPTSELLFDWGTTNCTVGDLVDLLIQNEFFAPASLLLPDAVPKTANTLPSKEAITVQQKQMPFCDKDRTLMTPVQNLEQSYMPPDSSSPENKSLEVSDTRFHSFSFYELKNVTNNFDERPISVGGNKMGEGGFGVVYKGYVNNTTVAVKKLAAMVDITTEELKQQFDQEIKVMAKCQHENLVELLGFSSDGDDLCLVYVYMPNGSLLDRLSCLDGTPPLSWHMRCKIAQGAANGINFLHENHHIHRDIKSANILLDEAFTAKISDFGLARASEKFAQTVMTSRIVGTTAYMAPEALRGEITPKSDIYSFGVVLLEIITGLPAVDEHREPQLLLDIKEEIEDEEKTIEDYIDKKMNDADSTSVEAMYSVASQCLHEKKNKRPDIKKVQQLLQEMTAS
# Procedure, shortened: (§2)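 OCI-Ly10 cells (1×10^6/ml) or PBMC (2×10^6/ml) treated with compound on the day of seeding and incubated overnight. IRAK-4 protein remaining in cell lysates quantified by sandwich ELISA.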
# IL6 [2] = test: LPS stimulated IL6 inhibition assay in PBMC; conditions: Homo sapiens, PBMC, 24 h, human PBMCs, LPS stimulation, compound overnight, IL6 by MSD after 24 hrs; for Dmax: read-out: LPS Stim IL6 inhibition Dmax; for IC50: read-out: LPS stim IL6 inhibition IC50
# Procedure, shortened: as §1
# IL6 [3] = test: R848 stimulated IL6 inhibition assay in PBMC; conditions: PBMC, human PBMCs, R848 stimulation, compound overnight, IL6 by MSD after 24 hrs; for Dmax: Homo sapiens, 24 h, read-out: R848 stim IL6 inhibition Dmax; for IC50: read-out: R848 stim IL6 inhibition IC50
# Procedure, shortened: as §1
# IL6 [4] = test: IL-1β stimulated IL6 inhibition assay in PBMC; conditions: PBMC, human PBMCs, IL-1β stimulation, compound overnight, IL6 by MSD after 24 hrs; for IC50: Homo sapiens, 24 h, read-out: IL1β stim IL6 inhibition IC50; for Emax: read-out: IL1β stim IL6 inhibition Ymax
# Procedure, shortened: as §1
# IRAK-4 [5] = molecular target: T1, IRAK-4; test: IRAK-4 ELISA, OCI-Ly10 degradation; set-up: endogenous in cells; conditions: treated overnight; for Dmax: OCI-Ly10, OCI-Ly10 cells; for DC50: OCI-Ly10 cells
# Procedure, shortened: as §2
smiles,measurement,setting,value
"CC(C)Oc1cc2c(cc1NC(=O)c1cnn3cccnc13)CN(C1CCN(CC3CCN(c4ccc5c(c4)C(=O)N(C4CCC(=O)NC4=O)C5=O)CC3)CC1)C2=O (centres unmarked) [Example 1, N-(2-(1-((1-(2-(2,6-dioxopiperidin-3-yl)-1,3-dioxoisoindolin-5-yl)piperidin-4-yl)methyl)piperidin-4-yl)-6-isopropoxy-1-oxoisoindolin-5-yl)pyrazolo[1,5-a]pyrimidine-3-carboxamide]",IC50,IL8,10 to 50 nM
same,Emax,IL8,70 to 80%
same,DC50,IRAK-4 [1],< 1 nM
same,Dmax,IRAK-4 [1],≥ 90%
same,PBMC DC90,IRAK-4 [1],1 nM
same,Dmax,IL6 [2],80 to 90%
same,IC50,IL6 [2],< 10 nM
same,Dmax,IL6 [3],≥ 90%
same,IC50,IL6 [3],< 10 nM
same,IC50,IL6 [4],< 10 nM
same,Emax,IL6 [4],≥ 90%
same,Dmax,IRAK-4 [5],≥ 90%
same,DC50,IRAK-4 [5],< 10 nM
COc1cc(N2CCC(CN3CCC(N4Cc5cc(NC(=O)c6cnn7cccnc67)c(OC(C)C)cc5C4=O)CC3)CC2)cc2c1C(=O)N(C1CCC(=O)NC1=O)C2 (centres unmarked) [Example 23],IC50,IL8,10 to 50 nM
same,Emax,IL8,80 to 90%
same,DC50,IRAK-4 [1],< 1 nM
same,Dmax,IRAK-4 [1],≥ 90%
same,PBMC DC90,IRAK-4 [1],A (A represents a DC90 value <10.0 nM)
same,Dmax,IL6 [2],70 to 80%
same,IC50,IL6 [2],10 to 50 nM
same,Dmax,IL6 [3],≥ 90%
same,IC50,IL6 [3],10 to 50 nM
same,IC50,IL6 [4],< 10 nM
same,Emax,IL6 [4],≥ 90%
same,Dmax,IRAK-4 [5],80 to 90%
same,DC50,IRAK-4 [5],< 10 nM
O=C1CCC(N2Cc3cc(N4CCC(CN5CCC(N6Cc7cc(NC(=O)c8cnn9cccnc89)c(N8CCC(N9CCC9)CC8)cc7C6=O)CC5)CC4)ccc3C2=O)C(=O)N1 (centres unmarked) [Example 97],IC50,IL8,10 to 50 nM
same,Emax,IL8,≥ 90%
same,DC50,IRAK-4 [1],< 1 nM
same,Dmax,IRAK-4 [1],80 to 90%
same,PBMC DC90,IRAK-4 [1],A (A represents a DC90 value <10.0 nM)
same,Dmax,IL6 [2],≥ 90%
same,IC50,IL6 [2],< 10 nM
same,Dmax,IL6 [3],≥ 90%
same,IC50,IL6 [3],10 to 50 nM
same,IC50,IL6 [4],< 10 nM
same,Emax,IL6 [4],≥ 90%
same,Dmax,IRAK-4 [5],≥ 90%
same,DC50,IRAK-4 [5],< 10 nM
O=C1CCC(N2Cc3cc(N4CC(F)(CN5CCC(n6cc7cc(NC(=O)c8cnn9cccnc89)c(OCC8CC8)cc7n6)CC5)C4)ccc3C2=O)C(=O)N1 (centres unmarked) [Example 279],IC50,IL8,≥ 100 nM
same,Emax,IL8,80 to 90%
same,DC50,IRAK-4 [1],< 1 nM
same,Dmax,IRAK-4 [1],≥ 90%
same,PBMC DC90,IRAK-4 [1],A (A represents a DC90 value <10.0 nM)
same,IC50,IL6 [4],10 to 50 nM
same,Emax,IL6 [4],≥ 90%
same,Dmax,IRAK-4 [5],70 to 80%
same,DC50,IRAK-4 [5],< 10 nM
CC(C)Oc1cc2c(cc1NC(=O)c1cnn3cccnc13)CN(C1CCN(C3CCN(c4ccc5c(c4)CN(C4CCC(=O)NC4=O)C5=O)CC3)CC1)C2=O (centres unmarked) [Example 282],IC50,IL8,10 to 50 nM
same,Emax,IL8,< 70%
same,DC50,IRAK-4 [1],< 1 nM
same,Dmax,IRAK-4 [1],≥ 90%
same,PBMC DC90,IRAK-4 [1],A (A represents a DC90 value <10.0 nM)
same,IC50,IL6 [4],< 10 nM
same,Emax,IL6 [4],≥ 90%
same,Dmax,IRAK-4 [5],≥ 90%
same,DC50,IRAK-4 [5],< 10 nM
"COc1c(N2CC(CN3CCC(n4cc5cc(NC(=O)c6cnn7cccnc67)c(OCC6CC6)cc5n4)CC3)C2)ccc2c1C(=O)N(C1CCC(=O)NC1=O)C2=O (centres unmarked) [Example 285, N-(6-(cyclopropylmethoxy)-2-(1-((1-(2-(2,6-dioxopiperidin-3-yl)-4-methoxy-1,3-dioxoisoindolin-5-yl)azetidin-3-yl)methyl)piperidin-4-yl)-2H-indazol-5-yl)pyrazolo[1,5-a]pyrimidine-3-carboxamide]",IC50,IL8,10 to 50 nM
same,Emax,IL8,< 70%
same,DC50,IRAK-4 [1],1 to 5 nM
same,Dmax,IRAK-4 [1],80 to 90%
same,PBMC DC90,IRAK-4 [1],A (A represents a DC90 value <10.0 nM)
same,IC50,IL6 [4],< 10 nM
same,Emax,IL6 [4],80 to 90%
same,Dmax,IRAK-4 [5],≥ 90%
same,DC50,IRAK-4 [5],< 10 nM
O=C1CCC(NC(=O)c2ccc(N3CC(CN4CCC(n5cc6cc(NC(=O)c7cnn8cccnc78)c(OCC7CC7)cc6n5)CC4)C3)cc2F)C(=O)N1 (centres unmarked) [Example 287],IC50,IL8,≥ 100 nM
same,Emax,IL8,< 70%
same,DC50,IRAK-4 [1],1 to 5 nM
same,Dmax,IRAK-4 [1],≥ 90%
same,PBMC DC90,IRAK-4 [1],B (B represents a DC90 value ≥10.0 nM and <25.0 nM)
same,IC50,IL6 [4],50 to 100 nM
same,Emax,IL6 [4],≥ 90%
same,Dmax,IRAK-4 [5],≥ 90%
same,DC50,IRAK-4 [5],< 10 nM
O=C1CCC(NC(=O)c2ccc(N3CCC(CN4CCC(n5cc6cc(NC(=O)c7cnn8cccnc78)c(OCC7CC7)cc6n5)CC4)CC3)cc2F)C(=O)N1 (centres unmarked) [Example 288],IC50,IL8,50 to 100 nM
same,Emax,IL8,70 to 80%
same,DC50,IRAK-4 [1],< 1 nM
same,Dmax,IRAK-4 [1],≥ 90%
same,PBMC DC90,IRAK-4 [1],A (A represents a DC90 value <10.0 nM)
same,IC50,IL6 [4],10 to 50 nM
same,Emax,IL6 [4],≥ 90%
same,Dmax,IRAK-4 [5],≥ 90%
same,DC50,IRAK-4 [5],< 10 nM
COc1cc2nn([C@H]3CC[C@H](N(C)C4CN(c5ccc6c(c5)C(=O)N(C5CCC(=O)NC5=O)C6=O)C4)CC3)cc2cc1NC(=O)c1cnn2cccnc12 (some centres unmarked) [Example 334],IC50,IL8,10 to 50 nM
same,Emax,IL8,< 70%
same,DC50,IRAK-4 [1],< 1 nM
same,Dmax,IRAK-4 [1],≥ 90%
same,PBMC DC90,IRAK-4 [1],A (A represents a DC90 value <10.0 nM)
same,IC50,IL6 [4],< 10 nM
same,Emax,IL6 [4],≥ 90%
same,Dmax,IRAK-4 [5],≥ 90%
same,DC50,IRAK-4 [5],< 10 nM
COc1cc2nn([C@H]3CC[C@H](N(C)C4CCN(c5ccc6c(c5)C(=O)N(C5CCC(=O)NC5=O)C6=O)CC4)CC3)cc2cc1NC(=O)c1cnn2cccnc12 (some centres unmarked) [Example 335],IC50,IL8,≥ 100 nM
same,DC50,IRAK-4 [1],< 1 nM
same,Dmax,IRAK-4 [1],≥ 90%
same,PBMC DC90,IRAK-4 [1],A (A represents a DC90 value <10.0 nM)
same,IC50,IL6 [4],< 10 nM
same,Emax,IL6 [4],≥ 90%
same,Dmax,IRAK-4 [5],≥ 90%
same,DC50,IRAK-4 [5],< 10 nM
COc1cc2nn([C@H]3CC[C@H](N(C)C4CN(c5ccc6c(c5)CN(C5CCC(=O)NC5=O)C6=O)C4)CC3)cc2cc1NC(=O)c1cnn2cccnc12 (some centres unmarked) [Example 337],IC50,IL8,< 10 nM
same,Emax,IL8,< 70%
same,DC50,IRAK-4 [1],1 to 5 nM
same,Dmax,IRAK-4 [1],≥ 90%
same,PBMC DC90,IRAK-4 [1],A (A represents a DC90 value <10.0 nM)
same,IC50,IL6 [4],< 10 nM
same,Emax,IL6 [4],≥ 90%
same,Dmax,IRAK-4 [5],≥ 90%
same,DC50,IRAK-4 [5],< 10 nM
COc1cc2nn([C@H]3CC[C@H](N(C)CC#Cc4ccc5c(c4)C(=O)N(C4CCC(=O)NC4=O)C5=O)CC3)cc2cc1NC(=O)c1cnn2cccnc12 (some centres unmarked) [Example 338],IC50,IL8,10 to 50 nM
same,Emax,IL8,< 70%
same,DC50,IRAK-4 [1],< 1 nM
same,Dmax,IRAK-4 [1],≥ 90%
same,PBMC DC90,IRAK-4 [1],A (A represents a DC90 value <10.0 nM)
same,IC50,IL6 [4],< 10 nM
same,Emax,IL6 [4],≥ 90%
same,Dmax,IRAK-4 [5],≥ 90%
same,DC50,IRAK-4 [5],< 10 nM
CN(C1CN(c2ccc3c(c2)CN(C2CCC(=O)NC2=O)C3=O)C1)[C@H]1CC[C@H](n2cc3cc(NC(=O)c4cnn5cccnc45)c(OCC4CC4)cc3n2)CC1 (some centres unmarked) [Example 339],IC50,IL8,10 to 50 nM
same,Emax,IL8,70 to 80%
same,DC50,IRAK-4 [1],< 1 nM
same,Dmax,IRAK-4 [1],≥ 90%
same,PBMC DC90,IRAK-4 [1],A (A represents a DC90 value <10.0 nM)
same,IC50,IL6 [4],< 10 nM
same,Emax,IL6 [4],≥ 90%
same,Dmax,IRAK-4 [5],≥ 90%
same,DC50,IRAK-4 [5],< 10 nM
COc1cc2nn(C3CCN(CC4CN(c5cccc6c5n(C)c(=O)n6C5CCC(=O)NC5=O)C4)CC3)cc2cc1NC(=O)c1cnn2cccnc12 (centres unmarked) [Example 379],IC50,IL8,10 to 50 nM
same,Emax,IL8,70 to 80%
same,DC50,IRAK-4 [1],< 1 nM
same,Dmax,IRAK-4 [1],≥ 90%
same,PBMC DC90,IRAK-4 [1],A (A represents a DC90 value <10.0 nM)
same,IC50,IL6 [4],< 10 nM
same,Emax,IL6 [4],80 to 90%
same,Dmax,IRAK-4 [5],≥ 90%
same,DC50,IRAK-4 [5],< 10 nM
